In assay [1] the target is T1, TRPV4 channel receptors (Bos taurus, UniProt A0A8F4X677).
T1 construct: obtained using this method in bovine articular chondrocytes; endogenous in cells; host or cells: bovine articular chondrocytes
The assay is described as follows: Ca2+ influx, Fura-2 fluorescence on FlexStation, bovine articular chondrocytes. The class given is cell-based. From the text: (§1) Ca^2+ influx mediated through TRPV4 channel receptors can be measured using articular chondrocytes from such species as, but not limited to, human, rat, canine, rabbit, monkey, and bovine, using standard techniques in the art such as, but not limited to, Fura-2 (Invitrogen/Molecular Probes, Eugene, Oreg.) fluorescence using a FlexStation (manufactured by Molecular Devices, Sunnyvale, Calif.). Table 1 lists biological data for several representative compounds obtained using this method in bovine articular chondrocytes.

Assay [2] has as its target T2, TRPV4 channel receptors (Homo sapiens, UniProt Q9HBA0).
T2 construct: obtained using this method in human articular chondrocytes; endogenous in cells; host or cells: human articular chondrocytes
The assay can be described thus: Ca2+ influx, Fura-2 fluorescence on FlexStation, human articular chondrocytes. The class given is cell-based.
Excerpt: as §1
Table 2 lists biological data for several representative compounds obtained using this method in human articular chondrocytes.

The structures appear in SMILES notation.

EC50 data for 3 molecules are collected here from US20090012011A1, “Novel Compounds” (SmithKline Beecham Corporation, priority 2006, published 2009).

T2 sequence (Q9HBA0 whole entry): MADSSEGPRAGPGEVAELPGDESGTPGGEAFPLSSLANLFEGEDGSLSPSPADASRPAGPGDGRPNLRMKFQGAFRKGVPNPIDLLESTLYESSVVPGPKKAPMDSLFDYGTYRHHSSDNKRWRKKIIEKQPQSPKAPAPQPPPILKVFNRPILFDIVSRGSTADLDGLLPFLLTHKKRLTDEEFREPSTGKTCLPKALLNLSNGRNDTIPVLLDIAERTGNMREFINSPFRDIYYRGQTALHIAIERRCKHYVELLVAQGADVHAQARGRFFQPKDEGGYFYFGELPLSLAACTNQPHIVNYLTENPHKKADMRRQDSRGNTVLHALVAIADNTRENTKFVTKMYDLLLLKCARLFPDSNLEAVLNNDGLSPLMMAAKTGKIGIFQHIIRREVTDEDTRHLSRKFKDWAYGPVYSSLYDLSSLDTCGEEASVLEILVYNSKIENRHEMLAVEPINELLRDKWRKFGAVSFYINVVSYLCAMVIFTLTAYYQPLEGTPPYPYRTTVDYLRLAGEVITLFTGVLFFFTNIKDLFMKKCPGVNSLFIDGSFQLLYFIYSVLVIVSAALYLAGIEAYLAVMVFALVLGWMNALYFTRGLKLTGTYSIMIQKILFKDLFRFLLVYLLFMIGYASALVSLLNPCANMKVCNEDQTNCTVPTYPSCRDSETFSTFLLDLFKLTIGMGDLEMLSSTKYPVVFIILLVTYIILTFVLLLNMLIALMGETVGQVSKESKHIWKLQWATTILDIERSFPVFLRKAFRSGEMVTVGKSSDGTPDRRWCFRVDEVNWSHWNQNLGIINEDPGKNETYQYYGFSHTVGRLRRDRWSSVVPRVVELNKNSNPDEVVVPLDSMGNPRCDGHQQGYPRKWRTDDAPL
T1 sequence (A0A8F4X677 1-871): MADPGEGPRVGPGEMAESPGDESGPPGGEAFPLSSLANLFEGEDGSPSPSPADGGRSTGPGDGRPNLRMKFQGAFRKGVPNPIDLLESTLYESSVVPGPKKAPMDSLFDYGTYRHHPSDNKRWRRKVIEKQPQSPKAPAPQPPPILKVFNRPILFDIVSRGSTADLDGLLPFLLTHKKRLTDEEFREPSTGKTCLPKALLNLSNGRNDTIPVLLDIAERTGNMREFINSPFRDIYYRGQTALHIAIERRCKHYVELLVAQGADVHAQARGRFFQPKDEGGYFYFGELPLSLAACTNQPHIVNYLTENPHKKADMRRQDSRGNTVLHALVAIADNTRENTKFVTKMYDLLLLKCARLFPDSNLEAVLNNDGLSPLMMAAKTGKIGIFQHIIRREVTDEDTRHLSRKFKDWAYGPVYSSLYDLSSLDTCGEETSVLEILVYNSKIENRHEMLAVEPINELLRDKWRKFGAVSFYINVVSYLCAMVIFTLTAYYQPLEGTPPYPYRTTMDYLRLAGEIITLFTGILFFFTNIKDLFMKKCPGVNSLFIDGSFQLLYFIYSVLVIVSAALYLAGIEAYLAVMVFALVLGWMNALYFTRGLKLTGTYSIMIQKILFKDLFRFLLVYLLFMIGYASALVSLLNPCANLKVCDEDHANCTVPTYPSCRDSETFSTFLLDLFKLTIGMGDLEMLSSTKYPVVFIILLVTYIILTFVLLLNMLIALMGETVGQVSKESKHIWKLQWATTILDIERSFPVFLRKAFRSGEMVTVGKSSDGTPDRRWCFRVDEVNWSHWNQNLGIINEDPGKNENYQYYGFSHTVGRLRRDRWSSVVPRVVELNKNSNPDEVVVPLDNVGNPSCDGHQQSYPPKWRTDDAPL

As for `CC(C)C[C@H](NC(=O)c1cc2ccccc2s1)C(=O)NC[C@@H]1CN(S(=O)(=O)c2ccc(F)cc2Cl)C[C@@H]1O` (single isomer, unassigned) [Example 2], the values for the EC50 in assay [1] and in assay [2] were 0.07 to 0.1 µM and 0.1 to 1 µM, respectively.

Turning to `CC(C)C[C@H](NC(=O)c1cc2ccccc2s1)C(=O)NC[C@H]1CN(S(=O)(=O)c2ccc(Cl)cc2Cl)C[C@H]1O` (single isomer, unassigned) [Example 3], the EC50 was 0.03 to 0.06 µM in assay [1] and 0.03 to 0.09 µM in assay [2].

As for `CC(C)C[C@H](NC(=O)c1cc2ccccc2s1)C(=O)NC[C@@H]1CN(S(=O)(=O)c2ccc(F)cc2C(F)(F)F)C[C@@H]1O` (single isomer, unassigned) [Example 6], in assay [2], the EC50 lay within 1 to 10 µM.
